The nature of data set [1]: Pharmacokinetics and bioavailability in guinea pigs. Type of data set: in vivo, guinea pig. How it is done:
All drugs were suspended in 1% DMSO, 0.5% DEA, 48.5% PEG 400, and 50% water. Blood was collected for analysis of these drugs in plasma pre-dose and at 1, 4, 8, 24, and 48 h post-dose. Plasma was separated and stored at −70° C. until analysis. Plasma drug concentrations were determined by liquid chromatography-mass spectrometry and liquid chromatography-tandem mass spectrometry over the concentration range of 0.005-1 mg/L with dilution to 10 mg/L. Pharmacokinetic variables were calculated from individual drug concentration-time data using non-compartmental methods as implemented in WinNonlin version 5.0 (Pharsight, Mountain View, Calif.) as described earlier.

The target of a further data set is T1, PTP1B (Homo sapiens, UniProt P18031).
T1 sequence (P18031 1-435): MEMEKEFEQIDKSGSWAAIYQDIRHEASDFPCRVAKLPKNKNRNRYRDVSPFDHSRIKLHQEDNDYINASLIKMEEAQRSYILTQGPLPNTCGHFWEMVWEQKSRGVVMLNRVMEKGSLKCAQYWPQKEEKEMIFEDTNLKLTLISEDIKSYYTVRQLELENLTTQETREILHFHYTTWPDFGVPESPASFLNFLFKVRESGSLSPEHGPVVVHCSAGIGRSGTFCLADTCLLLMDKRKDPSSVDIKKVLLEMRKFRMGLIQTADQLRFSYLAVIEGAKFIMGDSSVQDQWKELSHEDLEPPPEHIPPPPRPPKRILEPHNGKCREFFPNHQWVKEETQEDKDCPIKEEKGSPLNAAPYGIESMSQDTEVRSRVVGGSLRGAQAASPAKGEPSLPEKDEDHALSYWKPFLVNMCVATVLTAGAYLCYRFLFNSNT
In words: PTP inhibition assay (pNPP). Type of data set: biochemical. The following applies: pNPP at Km, pH 7.0, 25° C.

The next data set deals with YopH (Yersinia enterocolitica, UniProt P15273). In words: biochemical.
Sequence of YopH (P15273 whole entry, looked up): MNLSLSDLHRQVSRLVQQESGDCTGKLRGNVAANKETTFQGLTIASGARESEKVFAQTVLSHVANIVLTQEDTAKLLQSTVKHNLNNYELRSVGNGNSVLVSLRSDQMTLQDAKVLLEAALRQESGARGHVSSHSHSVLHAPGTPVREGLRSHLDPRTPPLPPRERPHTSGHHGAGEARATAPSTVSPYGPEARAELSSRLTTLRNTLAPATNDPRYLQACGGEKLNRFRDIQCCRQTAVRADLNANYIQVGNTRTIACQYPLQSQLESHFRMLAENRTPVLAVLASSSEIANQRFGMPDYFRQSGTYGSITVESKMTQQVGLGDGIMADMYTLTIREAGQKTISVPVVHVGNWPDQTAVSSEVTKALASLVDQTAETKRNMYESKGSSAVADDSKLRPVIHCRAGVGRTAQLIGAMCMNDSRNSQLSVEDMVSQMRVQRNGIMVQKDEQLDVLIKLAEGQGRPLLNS
The subject of a further data set is M. tuberculosis Erdman. In words: Microplate Alamar Blue assay (MABA) MIC. Type of data set: cell-based. The note with it: Mycobacterium tuberculosis, minimum inhibitory concentration, read-out: In vitro anti-Mtb activity MABA-MIC Erdman.
The next data set concerns the target T2, STEP (Homo sapiens, UniProt P54829).
T2 sequence (P54829 1-565): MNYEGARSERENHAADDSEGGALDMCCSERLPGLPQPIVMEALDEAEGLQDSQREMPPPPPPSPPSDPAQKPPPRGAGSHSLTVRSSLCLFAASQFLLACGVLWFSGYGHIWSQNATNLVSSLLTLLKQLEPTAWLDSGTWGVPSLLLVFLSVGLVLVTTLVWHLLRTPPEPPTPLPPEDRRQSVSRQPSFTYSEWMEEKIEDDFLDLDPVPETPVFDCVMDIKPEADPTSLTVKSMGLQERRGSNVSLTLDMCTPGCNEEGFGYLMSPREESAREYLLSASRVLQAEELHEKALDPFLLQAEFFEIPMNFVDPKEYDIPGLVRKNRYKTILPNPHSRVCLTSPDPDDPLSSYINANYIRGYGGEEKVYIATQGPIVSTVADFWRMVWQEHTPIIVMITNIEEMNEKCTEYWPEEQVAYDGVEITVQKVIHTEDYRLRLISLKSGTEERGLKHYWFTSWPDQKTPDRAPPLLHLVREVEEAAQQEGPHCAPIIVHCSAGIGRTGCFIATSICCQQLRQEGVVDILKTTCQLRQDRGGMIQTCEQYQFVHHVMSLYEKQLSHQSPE
In words: PTP inhibition assay (pNPP). Type of data set: biochemical. The following applies: pNPP at Km, pH 7.0, 25° C.

The target in another data set is T3, PTPH1 (Homo sapiens, UniProt P26045).
T3 sequence (P26045 1-913): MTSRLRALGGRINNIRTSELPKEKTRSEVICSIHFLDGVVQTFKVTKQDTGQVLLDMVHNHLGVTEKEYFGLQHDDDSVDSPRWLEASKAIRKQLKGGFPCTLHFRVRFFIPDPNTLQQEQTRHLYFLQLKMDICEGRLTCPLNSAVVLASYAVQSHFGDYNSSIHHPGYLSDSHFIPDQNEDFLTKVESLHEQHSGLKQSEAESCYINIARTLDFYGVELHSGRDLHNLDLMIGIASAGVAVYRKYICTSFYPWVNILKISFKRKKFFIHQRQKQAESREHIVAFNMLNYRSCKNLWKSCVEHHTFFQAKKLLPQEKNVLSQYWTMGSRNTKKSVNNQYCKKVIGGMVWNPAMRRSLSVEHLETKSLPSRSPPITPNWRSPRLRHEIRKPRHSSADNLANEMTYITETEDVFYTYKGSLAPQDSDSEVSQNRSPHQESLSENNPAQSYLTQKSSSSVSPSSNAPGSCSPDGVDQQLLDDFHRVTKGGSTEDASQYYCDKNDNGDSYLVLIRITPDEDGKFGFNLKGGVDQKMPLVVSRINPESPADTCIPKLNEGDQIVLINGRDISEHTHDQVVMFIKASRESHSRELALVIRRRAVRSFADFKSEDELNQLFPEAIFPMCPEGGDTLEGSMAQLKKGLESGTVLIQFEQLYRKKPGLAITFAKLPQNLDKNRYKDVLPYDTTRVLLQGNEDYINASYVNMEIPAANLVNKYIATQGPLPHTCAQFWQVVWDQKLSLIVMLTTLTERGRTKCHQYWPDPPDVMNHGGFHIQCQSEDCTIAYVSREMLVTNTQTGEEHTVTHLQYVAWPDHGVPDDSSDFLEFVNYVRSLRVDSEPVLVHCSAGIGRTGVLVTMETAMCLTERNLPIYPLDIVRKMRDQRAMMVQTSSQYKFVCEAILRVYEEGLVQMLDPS
In words: PTP inhibition assay (pNPP). Type of data set: biochemical.

A further data set concerns the target T4, VHZ (Homo sapiens, UniProt Q9BVJ7).
T4 sequence (Q9BVJ7 1-150): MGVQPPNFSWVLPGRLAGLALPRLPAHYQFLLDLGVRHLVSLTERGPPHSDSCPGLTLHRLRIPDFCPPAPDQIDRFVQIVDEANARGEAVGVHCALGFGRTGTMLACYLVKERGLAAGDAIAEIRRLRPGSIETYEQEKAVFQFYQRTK
In words: PTP inhibition assay (pNPP). Type of data set: biochemical.

A short description of the next data set: Water solubility. Type of data set: physicochemical.
Data set [2] relates to insulin signaling pathway in HepG2 cells (LMWPTP). As to the kind of experiment: Insulin signaling in HepG2 cells. Type of data set: cell-based. The note with it: HepG2, 1 hour pretreatment, 5 nM insulin for 5 minutes. How it is done:
To assess the effects of L335N15 in insulin signaling pathway, HepG2 cells were pretreated with L335N15 for 1 hour and were subsequently stimulated with 5 nM insulin for 5 minutes. […] Consistent with IR activation, downstream Akt phosphorylation (Ser473) was increased. […] Accordingly, LMWPTP inhibitors such as L335N15 described herein can be used to develop agents for the treatment of type 2 diabetes and insulin resistance.

Like-named read-outs stand apart in the source and are kept apart here.

On to `Cc1c(Br)cc(NC(=O)CS(=O)(=O)O)cc1Br`, for which the “Time plasma concentration 10-fold in excess of biochemical IC50” value in [1] (guinea pig, in vivo, po) is 12-14 hours. In data set [1] (guinea pig, plasma, po), the time of peak concentration (Tmax) was 2.5 h. Moreover, the “Oral bioavailability and half-life in guinea pigs” value in [1] (oral) is “good oral bioavailability and half-life”. The 50% inhibitory concentration (IC50) on PTP1B, at YopH and at STEP (IC50 STEP) was over 100 µM in each case. In addition, the minimum inhibitory concentration (MIC) with M. tuberculosis Erdman is over 10 µM.
For the compound `O=C(CS(=O)(=O)O)Nc1ccc2nc(C(F)(F)F)[nH]c2c1`, the IC50 at PTP1B, against PTPH1, against YopH and on STEP (read-out: IC50 STEP) was over 100 µM in each case.
`O=C(CS(=O)(=O)O)Nc1cnc2ccccc2c1`: the IC50 against PTP1B, on PTPH1, at YopH and on STEP (read-out: IC50 STEP) was over 100 µM each time.
Turning to `O=C(NCCNC(=O)C(c1ccccc1)S(=O)(=O)O)c1cccc(C(=O)c2ccccc2)c1` (stereo not shown) [Compound L319-02-A60], the IC50 against PTP1B and on STEP (read-out: IC50 STEP) was over 200 µM each time.
For the compound `O=C(NCc1ccc(NC(=O)C(c2ccccc2)S(=O)(=O)O)cc1)c1ccccc1-c1ccc(C(F)(F)F)cc1` (stereo not shown) [Compound L319-05-A64], the results for the concentration for half-maximal inhibition (IC50) against PTP1B and at STEP (read-out: IC50 STEP) were 183 µM and over 100 µM, respectively.
In the same order, the values of `CCCCc1ccc(NC(=O)C(=O)Nc2ccccc2NC(=O)C(c2ccccc2)S(=O)(=O)O)cc1` (stereo not shown) [Compound L319-21-M06] are over 50 µM and over 50 µM.
With `O=C(Nc1cccc(OCc2ccccc2)c1)C(=O)Nc1ccccc1NC(=O)C(c1ccccc1)S(=O)(=O)O` (stereo not shown) [Compound L319-21-M52], the IC50 against PTP1B and on STEP (read-out: IC50 STEP) was over 50 µM throughout.
`Cc1c(Br)cc(NC(=O)C(c2ccccc2)S(=O)(=O)O)cc1Br` (stereo not shown) [Compound L319M34]: the IC50 against YopH and on STEP (IC50 STEP) was over 200 µM in each case.
On to `O=C(Nc1ccc(OCc2ccccc2)c(Cl)c1)C(c1ccccc1)S(=O)(=O)O` (stereo not shown) [Compound L319M50], for which the IC50 at PTP1B and on STEP (read-out: IC50 STEP) was over 200 µM each time.
As for `O=C(Nc1cccc(OCc2ccccc2)c1)C(c1ccccc1)S(=O)(=O)O` (stereo not shown) [Compound L319M52], the IC50 against PTP1B, at PTPH1, at YopH, at STEP (read-out: IC50 STEP) and at VHZ was over 200 µM each time.
Take `O=C(Nc1ccc2nc(C(F)(F)F)[nH]c2c1)C(c1ccccc1)S(=O)(=O)O` (stereo not shown) [Compound L319M54]: the concentration for half-maximal inhibition (IC50) on PTP1B, against YopH, at STEP (read-out: IC50 STEP) and on VHZ was over 200 µM throughout.
`O=C(Nc1ccc(N2CCOCC2)cc1)C(c1ccccc1)S(=O)(=O)O` (stereo not shown) [Compound L319M68]: the IC50 at PTP1B, against YopH and on STEP (read-out: IC50 STEP) was over 200 µM throughout.
For `O=C(Nc1cnc2ccccc2c1)C(c1ccccc1)S(=O)(=O)O` (stereo not shown) [Compound L319M88], the IC50 on PTP1B, against YopH and at STEP (read-out: IC50 STEP) was over 200 µM each time.
`O=C(Nc1ccc(-c2ccccc2)cc1)C(c1ccccc1)S(=O)(=O)O` (stereo not shown) [Compound L319N08]: the results for the half-inhibitory concentration (IC50) on PTP1B and at STEP (IC50 STEP) were over 200 µM and over 100 µM, respectively.
With `O=C(Nc1nc2ccccc2s1)C(c1ccccc1)S(=O)(=O)O` (stereo not shown) [Compound L319N15], the half-maximal inhibitory concentration (IC50) against PTP1B, on YopH, on STEP (read-out: IC50 STEP) and at VHZ was over 200 µM throughout.
For the compound `O=C(C(c1ccccc1)S(=O)(=O)O)N1CCC(Cc2ccccc2)CC1` (stereo not shown) [Compound L319N46], the solubility in the data set “Water solubility” is over 10000 µg/mL. Besides, the IC50 against PTP1B, at PTPH1, against YopH, at STEP (read-out: IC50 STEP) and against VHZ was over 200 µM in each case.
As to `O=C(C(c1ccccc1)S(=O)(=O)O)N1CCC(c2ccc(Cl)c(Cl)c2)CC1` (stereo not shown) [Compound L319N47], the solubility in the data set “Water solubility” is over 10000 µg/mL. Besides, the IC50 on PTP1B was 145 µM; at PTPH1 it was 30 µM; against YopH, 160 µM; on STEP (read-out: IC50 STEP) it was over 200 µM; against VHZ, 80 µM.
Compound `O=C(C(c1ccccc1)S(=O)(=O)O)N1CCCC2CCCCC21` (stereo not shown) [Compound L319N53] yielded a solubility in “Water solubility” of over 10000 µg/mL. The IC50 on PTP1B, on PTPH1, at YopH, on STEP (read-out: IC50 STEP) and against VHZ was over 200 µM throughout.
As for `O=C(CS(=O)(=O)O)Nc1nc2ccc([N+](=O)[O-])cc2s1` [Compound L335N15-07], the IC50 against PTP1B, against PTPH1, against YopH and at STEP (read-out: IC50 STEP) was over 100 µM in each case.
`O=C(CS(=O)(=O)O)Nc1nc2ccccc2s1` [Compound L335N15]: the half-maximal inhibitory concentration (IC50) against PTP1B, against PTPH1, against YopH and at STEP (read-out: IC50 STEP) was over 100 µM each time. In data set [2], the “Akt phosphorylation (Ser473)” value is “increased”. Further, the “IR Tyr1162/1163 phosphorylation” value in data set [2] (relative to DMSO) was “enhanced IR Tyr1162/1163 phosphorylation in a dose-dependent fashion”.
